# Assay results taken from article PMC8839658, “Design and Activity of Novel Oxadiazole Based Compounds That Target Poly(ADP-ribose) Polymerase” (Molecules, 2022).
# System: MCF-7 cells
# Assay: MCF-7 cell viability assay (Alamar Blue)
# Assay type: cell-based, human
# Settings: Homo sapiens, MCF7, 72 h, MCF-7, 72 h, Alamar Blue; read-out: IC50, cell viability of MCF-7 cells
# Protocol: Initially, the newly synthesized oxadiazoles were examined in cell viability studies in human breast cancer (MCF-7) cells using Alamar Blue assays.
# MCF-7 and MDA-MB-231 (2000) cells were cultured in MEM or Leibovitz’s L-15 medium enriched with 2% FBS and maintained in a humidified atmosphere of 5% CO2 at 37 °C [44]. DMSO dissolved compounds were kept as a stock solution, and diluted with a cell culture medium to the desired concentration. Cancer cells (4 × 10^3) were grown overnight in 96-well plates, cultured, and treated with oxadiazoles or Olaparib at 0, 0.01, 0.1, 10, 100, and 1000 µM concentrations for 72 h. The inhibitory effect of the compounds was assessed using Alamar Blue reagent.
# MCF-7 and MDA-MB-231 were treated with 5u, 5s and Olaparib (0, 0.01, 0.1, 1, 10, 100 µM) for 72 h, respectively. The viability of MCF-7 (A) and MDA-MB-231 cells (B) were analyzed using a microplate reader to measure the fluorescence of Alamar Blue reagent (excitation wavelength is between 530–560 nm and emission wavelength is 590 nm). The results are means of triplicate determinations.
row,Structure (SMILES),IC50
1,COc1cccc(-c2cccc(-c3nnc(-c4ccc5c(c4)OCCO5)o3)c2)c1 [C00008],345 µM
2,O=C(NC1CCCC1)c1cccc(-c2cccc(-c3nnc(-c4ccc5c(c4)OCCO5)o3)c2)c1 [C00006],161 µM
3,COc1ccc(Cc2nnc(-c3cccc(-c4cncc(C)c4C)c3)o2)cc1OC [C00009],33.2 µM
4,"COc1ccc(Cc2nnc(-c3cccc(-c4cncnc4)c3)o2)cc1OC [compound 5h, 2-(3,4-Dimethoxybenzyl)-5-(3-(pyrimidin-5-yl)phenyl)-1,3,4-oxadiazole]",21.8 µM
5,Cc1cc(-c2cccc(-c3nnc(-c4ccc5c(c4)OCCO5)o3)c2)cnc1Cl [C00002],160 µM
6,c1cc(-c2ccncc2)cc(-c2nnc(-c3ccc4c(c3)OCCO4)o2)c1 [C00012],> 100 µM
7,Cc1cncc(-c2cccc(-c3nnc(-c4ccc5c(c4)OCCO5)o3)c2)c1C [C00011],76.4 µM
8,"COc1ccc(Cc2nnc(-c3cccc(-c4cccnc4)c3)o2)cc1OC [compound 5m, 2-(3,4-Dimethoxybenzyl)-5-(3-(pyridin-3-yl)phenyl)-1,3,4-oxadiazole]",27.1 µM
9,FC(F)(F)c1ccc(-c2cccc(-c3nnc(-c4ccc5c(c4)OCCO5)o3)c2)cc1 [C00004],205 µM
10,c1cncc(-c2cccc(-c3nnc(-c4ccc5c(c4)OCCO5)o3)c2)c1 [C00016],182 µM
11,c1cc(-c2cncnc2)cc(-c2nnc(-c3ccc4c(c3)OCCO4)o2)c1 [C00007],43.5 µM
12,Cc1c(-c2cccc(-c3nnc(-c4ccc5c(c4)OCCO5)o3)c2)ccnc1F [C00017],265 µM
13,c1cc(-c2nnc(-c3ccc4c(c3)OCCO4)o2)cc(-c2cccc3ccccc23)c1 [C00010],74.8 µM
14,COc1ccc(Cc2nnc(-c3cccc(-c4ccc(C(C)=O)s4)c3)o2)cc1OC [C00025],> 100 µM
15,O=Cc1cccc(-c2cccc(-c3nnc(-c4ccc5c(c4)OCCO5)o3)c2)c1 [C00021],85.3 µM
16,"COc1ccc(Cc2nnc(-c3cccc(-c4cnc(F)c(C)c4)c3)o2)cc1OC [compound 5p, 2-(3,4-Dimethoxybenzyl)-5-(3-(6-fluoro-5-methylpyridin-3-yl)phenyl)-1,3,4-oxadiazole]",18.4 µM
17,COc1ccc(Cc2nnc(-c3cccc(-c4cncnc4)c3)o2)cc1 [C00003],31.5 µM
18,"COc1ccc(Cc2nnc(-c3cccc(-c4ccnc(F)c4C)c3)o2)cc1 [compound 5r, 2-(3-(2-Fluoro-3-methylpyridin-4-yl)phenyl)-5-(4-methoxybenzyl)-1,3,4-oxadiazole]",25 µM
19,"COc1cccc2c1C(=O)c1c(O)c3c(c(O)c1C2=O)C[C@@](O)(C(=O)CO)C[C@@H]3O[C@H]1C[C@H](N)[C@H](O)[C@H](C)O1 [Doxorubicin, reference compound]",0.24 µM
20,COc1ccc(Cc2nnc(-c3cccc(-c4cccnc4)c3)o2)cc1 [C00013],30.9 µM
21,"COc1ccc(Cc2nnc(-c3cccc(-c4ccc(C(C)=O)s4)c3)o2)cc1 [compound 5w, 1-(5-(3-(5-(4-Methoxybenzyl)-1,3,4-oxadiazol-2-yl)phenyl)thiophen-2-yl)ethanone]",23.1 µM
22,COc1ccc(Cc2nnc(-c3cccc(-c4cnc(F)c(C)c4)c3)o2)cc1 [C00018],41.2 µM
23,Cc1cc(-c2cccc(-c3nnc(-c4ccc5c(c4)OCCO5)o3)c2)cnc1F [C00022],84 µM

# Same assay, conditions: MCF-7, 72 h, Alamar Blue; read-out: IC50, cell viability of MCF-7 cells
row,Structure (SMILES),IC50
1,COc1ccc(Cc2nnc(-c3cccc(-c4cncnc4)c3)o2)cc1OC [C00005],21.9 µM
2,COc1ccc(Cc2nnc(-c3cccc(-c4ccnc(F)c4C)c3)o2)cc1 [C00024],25 µM
3,COc1ccc(Cc2nnc(-c3cccc(-c4cnc(F)c(C)c4)c3)o2)cc1OC [C00020],18.4 µM
4,COc1ccc(Cc2nnc(-c3cccc(-c4ccc(C(C)=O)s4)c3)o2)cc1 [C00023],23.1 µM
5,COc1ccc(Cc2nnc(-c3cccc(-c4cccc(C=O)c4)c3)o2)cc1 [C00019],1.45 µM
6,COc1ccc(Cc2nnc(-c3cccc(-c4cccnc4)c3)o2)cc1OC [C00014],27.1 µM
7,COc1ccc(Cc2nnc(-c3cccc(-c4ccnc(F)c4C)c3)o2)cc1OC [C00015],15.3 µM

# System: not given
# Assay: not given
# Settings: not given
row,Structure (SMILES),melting point
1,"COc1ccc(Cc2nnc(-c3cccc(-c4cncc(C)c4C)c3)o2)cc1OC [compound 5j, 2-(3,4-Dimethoxybenzyl)-5-(3-(4,5-dimethylpyridin-3-yl)phenyl)-1,3,4-oxadiazole]",90 to 92 °C
2,"Cc1c(-c2cccc(-c3nnc(-c4ccc5c(c4)OCCO5)o3)c2)ccnc1F [5t, 2-(2,3-Dihydrobenzo[b][1,4]dioxin-6-yl)-5-(3-(2-fluoro-3-methylpyridin-4-yl)phenyl)-1,3,4-oxadiazole]",128 to 130 °C
3,"c1cc(-c2ccncc2)cc(-c2nnc(-c3ccc4c(c3)OCCO4)o2)c1 [5f, 2-(2,3-Dihydrobenzo[b][1,4]dioxin-6-yl)-5-(3-(pyridin-4-yl)phenyl)-1,3,4-oxadiazole]",194 to 196 °C
4,"FC(F)(F)c1ccc(-c2cccc(-c3nnc(-c4ccc5c(c4)OCCO5)o3)c2)cc1 [5b, 2-(2,3-Dihydrobenzo[b][1,4]dioxin-6-yl)-5-(4′-(trifluoromethyl)-[1,1′-biphenyl]-3-yl)-1,3,4-oxadiazole]",160 to 162 °C
5,"COc1ccc(Cc2nnc(-c3cccc(-c4cncnc4)c3)o2)cc1OC [compound 5h, 2-(3,4-Dimethoxybenzyl)-5-(3-(pyrimidin-5-yl)phenyl)-1,3,4-oxadiazole]",98 to 100 °C
6,"O=C(NC1CCCC1)c1cccc(-c2cccc(-c3nnc(-c4ccc5c(c4)OCCO5)o3)c2)c1 [5c, N-Cyclopentyl-3′-(5-(2,3-dihydrobenzo[b][1,4]dioxin-6-yl)-1,3,4-oxadiazol-2-yl)-[1,1′-biphenyl]-3-carboxamide]",186 to 188 °C
7,"c1cc(-c2cncnc2)cc(-c2nnc(-c3ccc4c(c3)OCCO4)o2)c1 [5i, 2-(2,3-Dihydrobenzo[b][1,4]dioxin-6-yl)-5-(3-(pyrimidin-5-yl)phenyl)-1,3,4-oxadiazole]",190 to 192 °C
8,"c1cc(-c2nnc(-c3ccc4c(c3)OCCO4)o2)cc(-c2cccc3ccccc23)c1 [5e, 2-(2,3-Dihydrobenzo[b][1,4]dioxin-6-yl)-5-(3-(naphthalen-1-yl)phenyl)-1,3,4-oxadiazole]",156 to 158 °C
9,"COc1ccc(Cc2nnc(-c3cccc(-c4cccnc4)c3)o2)cc1OC [compound 5m, 2-(3,4-Dimethoxybenzyl)-5-(3-(pyridin-3-yl)phenyl)-1,3,4-oxadiazole]",78 to 80 °C
10,"Cc1cncc(-c2cccc(-c3nnc(-c4ccc5c(c4)OCCO5)o3)c2)c1C [5k, 2-(2,3-Dihydrobenzo[b][1,4]dioxin-6-yl)-5-(3-(4,5-dimethylpyridin-3-yl)phenyl)-1,3,4-oxadiazole]",198 to 200 °C
11,"COc1ccc(Cc2nnc(-c3cccc(-c4cncnc4)c3)o2)cc1 [compound 5g, 2-(4-Methoxybenzyl)-5-(3-(pyrimidin-5-yl)phenyl)-1,3,4-oxadiazole]",90 to 92 °C
12,"Cc1cc(-c2cccc(-c3nnc(-c4ccc5c(c4)OCCO5)o3)c2)cnc1F [5q, 2-(2,3-Dihydrobenzo[b][1,4]dioxin-6-yl)-5-(3-(6-fluoro-5-methylpyridin-3-yl)phenyl)-1,3,4-oxadiazole]",144 to 146 °C
13,"COc1ccc(Cc2nnc(-c3cccc(-c4cnc(F)c(C)c4)c3)o2)cc1OC [compound 5p, 2-(3,4-Dimethoxybenzyl)-5-(3-(6-fluoro-5-methylpyridin-3-yl)phenyl)-1,3,4-oxadiazole]",91 to 93 °C
14,"COc1ccc(Cc2nnc(-c3cccc(-c4cnc(F)c(C)c4)c3)o2)cc1 [compound 5o, 2-(3-(6-Fluoro-5-methylpyridin-3-yl)phenyl)-5-(4-methoxybenzyl)-1,3,4-oxadiazole]",86 to 88 °C
15,"COc1ccc(Cc2nnc(-c3cccc(-c4ccnc(F)c4C)c3)o2)cc1 [compound 5r, 2-(3-(2-Fluoro-3-methylpyridin-4-yl)phenyl)-5-(4-methoxybenzyl)-1,3,4-oxadiazole]",94 to 96 °C
16,"c1cncc(-c2cccc(-c3nnc(-c4ccc5c(c4)OCCO5)o3)c2)c1 [5n, 2-(2,3-Dihydrobenzo[b][1,4]dioxin-6-yl)-5-(3-(pyridin-3-yl)phenyl)-1,3,4-oxadiazole]",138 to 140 °C

# Biological target: T1, recombinant human PARP enzyme (PARP1) (Homo sapiens, UniProt P09874)
# T1 construct: purchased R&D Systems Ltd., Abingdon, UK 4677-096-K
# T1 sequence (P09874 whole entry): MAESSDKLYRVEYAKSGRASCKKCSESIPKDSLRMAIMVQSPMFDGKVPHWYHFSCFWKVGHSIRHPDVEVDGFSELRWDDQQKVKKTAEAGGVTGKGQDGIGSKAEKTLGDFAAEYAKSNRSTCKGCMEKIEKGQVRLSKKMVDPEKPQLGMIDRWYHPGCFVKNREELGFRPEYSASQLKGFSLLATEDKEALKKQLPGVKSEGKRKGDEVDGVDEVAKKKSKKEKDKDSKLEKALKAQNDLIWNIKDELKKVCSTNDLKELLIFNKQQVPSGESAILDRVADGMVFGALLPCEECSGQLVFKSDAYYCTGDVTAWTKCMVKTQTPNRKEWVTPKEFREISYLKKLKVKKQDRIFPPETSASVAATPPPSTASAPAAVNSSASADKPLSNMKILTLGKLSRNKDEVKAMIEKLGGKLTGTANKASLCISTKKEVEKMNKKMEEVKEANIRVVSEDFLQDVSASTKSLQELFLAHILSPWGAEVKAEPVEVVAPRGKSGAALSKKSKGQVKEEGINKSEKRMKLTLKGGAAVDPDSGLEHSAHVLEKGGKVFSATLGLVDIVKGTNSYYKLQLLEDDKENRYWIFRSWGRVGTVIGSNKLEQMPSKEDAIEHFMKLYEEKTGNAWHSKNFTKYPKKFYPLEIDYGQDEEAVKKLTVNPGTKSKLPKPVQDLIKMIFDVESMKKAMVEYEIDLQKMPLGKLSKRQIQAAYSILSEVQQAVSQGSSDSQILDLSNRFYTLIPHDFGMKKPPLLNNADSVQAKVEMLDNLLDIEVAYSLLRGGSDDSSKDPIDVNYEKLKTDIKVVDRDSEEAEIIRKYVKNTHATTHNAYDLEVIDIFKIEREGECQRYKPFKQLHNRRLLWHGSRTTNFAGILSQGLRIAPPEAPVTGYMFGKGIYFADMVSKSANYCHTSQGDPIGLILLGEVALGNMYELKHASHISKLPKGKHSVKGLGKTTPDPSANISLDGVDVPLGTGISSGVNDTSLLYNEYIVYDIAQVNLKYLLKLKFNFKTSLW
# Assay: PARP activity, PARP/Apoptosis Universal Colorimetric Assay Kit
# Assay type: biochemical
# Settings: 0.01 µM, n = 3
# Protocol: PARP activity was measured using the PARP/Apoptosis Universal Colorimetric Assay Kit (4677-096-K, R&D Systems Ltd., Abingdon, UK). The enzyme inhibition assay uses the histone proteins immobilized 96-well plate, which measures the incorporation of ADP-ribose (biotin-tagged), followed by detection using streptavidin-conjugated horse-radish peroxidase, and finally the color development after the addition of substrate. Oxadiazoles were incubated with the recombinant human PARP enzyme prior to detection.
row,Structure (SMILES),inhibition at 0.01 µM
1,"NC(=O)c1cccc(N)c1 [3-Aminobenzamide, reference compound]",0.5%

# Same assay, conditions: 0.1 µM, n = 3
row,Structure (SMILES),inhibition at 0.1 µM
1,"NC(=O)c1cccc(N)c1 [3-Aminobenzamide, reference compound]",6.17%

# Same assay, conditions: 1 µM, n = 3
row,Structure (SMILES),inhibition at 1 µM
1,"NC(=O)c1cccc(N)c1 [3-Aminobenzamide, reference compound]",23.3%

# Same assay, conditions: 10 µM, n = 3
row,Structure (SMILES),inhibition at 10 µM
1,"NC(=O)c1cccc(N)c1 [3-Aminobenzamide, reference compound]",56.6%

# Same assay, conditions: 100 µM, n = 3
row,Structure (SMILES),inhibition at 100 µM
1,"NC(=O)c1cccc(N)c1 [3-Aminobenzamide, reference compound]",85.7%
